Data from patent publication US20260258047A1, “COMPOSITIONS USEFUL FOR MODULATING SPLICING” (Skyhawk Therapeutics, Inc., priority 2023, published 2026).
pIC50: −log10 of the molar value.

system: ATXN3 transcripts containing exon 4; assay: ATXN3 quantitative splicing assay (qPCR, E4E5 primers/probe); assay type: cell-based; conditions: Human neuroblastoma SK-N-MC cells, 24 h treatment, qPCR of transcripts containing exon 4; read-out: ATXN3 Potency - Splicing E4E5 IC50
Protocol: Human neuroblastoma SK-N-MC cells were plated in 384-well plates at 20,000 cells/well. Twenty-four hours after plating, cells were treated with compounds for 24 h at appropriate concentrations ranging from 30 μM to 0.6 nM (0.3% DMSO). Treated cells were lysed in 15 μL of lysis buffer, and cDNA was synthesized using the Fast Advanced Cells-to-Ct kit. Two μL of each cDNA was used in qPCR reactions to confirm the exon 4 skipped transcripts of ATXN3. A second set of primers/probe E4E5 was used to detect the transcripts containing exon 4. The third set of primers/probe E8E9 was used to detect total gene level of ATXN3. The qPCR reactions were prepared in 384-well plates in 10 μL volume, using TaqMan™ Fast Advanced Master Mix with primers and probes shown in the table below. Reactions were run in a Quant Studio 6 qPCR instrument with default settings.
The primers and probes are listed below in Table 3.

| SMILES | pIC50 |
| --- | --- |
| C[C@H](F)[C@H](N)Cc1cc2c(NCc3ccncc3F)nc(Cl)nn2c1Br [Compound 1, 6-((2R,3S)-2-amino-3-fluorobutyl)-7-bromo-2-chloro-N-((3-fluoropyridin-4-yl)methyl)pyrrolo[2,1-f][1,2,4]triazin-4-amine] | 7.00 to 11.00 |
| C[C@H](F)[C@H](N)Cc1cc2c(NCc3ccncn3)nc(Cl)nn2c1Br [Compound 2, 6-((2R,3S)-2-amino-3-fluorobutyl)-7-bromo-2-chloro-N-(pyrimidin-4-ylmethyl)pyrrolo[2,1-f][1,2,4]triazin-4-amine] | 7.00 to 11.00 |
| C[C@H](F)[C@H](N)Cc1cc2c(NCc3ncccc3F)nc(Cl)nn2c1Br [Compound 3, 6-((2R,3S)-2-amino-3-fluorobutyl)-7-bromo-2-chloro-N-((3-fluoropyridin-2-yl)methyl)pyrrolo[2,1-f][1,2,4]triazin-4-amine] | 5.30 to 6.30 |
| C[C@H](F)[C@H](N)Cc1cc2c(NCc3c(F)cncc3F)nc(Cl)nn2c1Br [Compound 4, 6-((2R,3S)-2-amino-3-fluorobutyl)-7-bromo-2-chloro-N-((3,5-difluoropyridin-4-yl)methyl)pyrrolo[2,1-f][1,2,4]triazin-4-amine] | 6.30 to 7.00 |

Next, values leading:

| pIC50 | SMILES |
| --- | --- |
| 6.30 to 7.00 | Cc1c(C[C@@H](N)[C@H](C)F)cc2c(NCc3ccncc3)nc(Cl)nn12 [Compound 5, 6-((2R,3S)-2-amino-3-fluorobutyl)-2-chloro-7-methyl-N-(pyridin-4-ylmethyl)pyrrolo[2,1-f][1,2,4]triazin-4-amine] |
| 6.30 to 7.00 | Cc1c(C[C@@H](N)[C@H](C)F)cc2c(NCc3ccncn3)nc(Cl)nn12 [Compound 6, 6-((2R,3S)-2-amino-3-fluorobutyl)-2-chloro-7-methyl-N-(pyrimidin-4-ylmethyl)pyrrolo[2,1-f][1,2,4]triazin-4-amine] |
| 6.30 to 7.00 | Cc1c(C[C@@H](N)[C@H](C)F)cc2c(NCc3ccncc3F)nc(Cl)nn12 [Compound 7, 6-((2R,3S)-2-amino-3-fluorobutyl)-2-chloro-N-((3-fluoropyridin-4-yl)methyl)-7-methylpyrrolo[2,1-f][1,2,4]triazin-4-amine] |
| 5.30 to 6.30 | Cc1c(C[C@@H](N)CC2CC2)cc2c(NCc3ccncc3)nc(Cl)nn12 [Compound 8, (S)-6-(2-amino-3-cyclopropylpropyl)-2-chloro-7-methyl-N-(pyridin-4-ylmethyl)pyrrolo[2,1-f][1,2,4]triazin-4-amine] |
| 5.30 to 6.30 | Cc1c(C[C@@H](N)CC2CC2)cc2c(NCc3ccncn3)nc(Cl)nn12 [Compound 9, (S)-6-(2-amino-3-cyclopropylpropyl)-2-chloro-7-methyl-N-(pyrimidin-4-ylmethyl)pyrrolo[2,1-f][1,2,4]triazin-4-amine] |
| 5.30 to 6.30 | Cc1c(C[C@@H](N)CC2CC2)cc2c(NCc3ccncc3F)nc(Cl)nn12 [Compound 10, (S)-6-(2-amino-3-cyclopropylpropyl)-2-chloro-N-((3-fluoropyridin-4-yl)methyl)-7-methylpyrrolo[2,1-f][1,2,4]triazin-4-amine] |
